Entries after “also recorded” stand apart in the source; their conditions may differ.
Key:
HSP90 protein = assay: STD 1H NMR spectroscopy binding to HSP90; details: compound to protein ratio approximately 100:1, 20 mM sodium phosphate buffer pH 6.7
Experimental: (§1) FIG. 9 is a STD 1H NMR Spectrum of Compound 1 and 20 with HSP90 protein. STD NMR experiments were performed at 19° C. on a Varian INNOVA 500 MHz spectrometer equipped with a triple resonance HCN cold probe. A 1D saturation transfer difference pulse sequence with internal subtraction via phase cycling was employed. Residual HDO signal was removed using a W5 WATERGATE pulse sequence, with a […] interpulse delay. On resonance irradiation of the protein was performed at −0.5 ppm, with off-resonance irradiation at 34 ppm. The irradiation power was (g/2p)B1=93 Hz applied through a train of 50 ms eburp1 pulses with a 1 ms delay between the pulses. The total presaturation time was 5.1 s. The relaxation delay was set to 0.1 s. A 30 ms spin-lock pulse with a strength of (g/2p)B1=4600 Hz was used to eliminate background protein signals. The total number of scans was between 1536, with a sweep width of 16 ppm. Spectra were multiplied by a 1 Hz exponential line-broadening function prior to Fourier transform. Compounds 1 (85 uM) and 20 (85 uM) and HSP90 protein (0.85 uM) in 20 mM sodium phosphate buffer (pH 6.7) was used. A) STD 1H NMR spectrum, B) preset reference, and C) STD reference-no saturation/difference.
as §1, with “STD” for “FIG. 9 is a STD 1H NMR Spectrum of Compound 1 and 20 with HSP90 protein. STD”, “employed (Mayer and Meyer, JACS, 2001, 123, 6108-6117).” for “employed.”, “delay (Liu et. al, J. Magn. Res., 1998, 132, 125).” for “delay.”, “1536-2048,” for “1536,”, “transform.” for “transform. Compounds 1 (85 uM) and 20 (85 uM) and HSP90 protein (0.85 uM) in 20 mM sodium phosphate buffer (pH 6.7) was used. A) STD 1H NMR spectrum, B) preset reference, and C) STD reference-no saturation/difference.”
The compound to protein ratio was fixed at approximately 100:1 in 20 mM sodium phosphate buffer (pH 6.7). Compound 20 was used as a reference compound to compare binding affinities of various compounds to HSP90 by comparing the relative intensity of NOE effects in the spectra of compounds 1 and 20 (see FIG. 9), compounds 2 and 20, compounds 5 and 20, compounds 13 and 20, and compounds 15 and 20 (near equamolar quantities of each) in the presence of HSP90 protein. Using the NOE signals for the imidazole proton, and comparing peak heights, the relative kd of the compound pairs were compared (see Meyer and Peters, T. Angew. Chem. Int. Ed. 2003, 42, 864). The kds of the compound pairs ranged from 1:1 to 8:1. These differences in binding affinities correlated to the potency of each respective compound's ability to rescue SCG neurons from NGF withdrawal as previously reported.

[1] = full body radiography
Experimental: The induction of HSP70 was investigated in vivo by the treatment of rats with a single dose of Na-19 (SC, 30 mg/kg).

SCG neurons = assay: NGF-withdrawal induced cell death of SCG neurons (MTS assay); assay type: cell-based, rat; details: SCG neurons withdrawn from NGF, 48 hours
Experimental: FIG. 1 is a graph showing that compound 1 inhibits NGF-withdrawal induced cell death. Cultures of rat SCG neurons (see Materials and Methods) initially maintained in 10 ng/ml of NGF were withdrawn from NGF and maintained in media containing compound 1 at the concentrations indicated for 48 hours. Cellular viability was assayed using an MTS assay. (*=P<0.01 relative to no compound 1). Experiments were performed three times with identical results.
Survival of neonatal primary sympathetic neurons is dependent on trophic support provided by Neuronal Growth Factor (NGF) (reviewed in (Young et al., 2004)).
(§2) Cell culture, infection, transfection and immunoblotting. Sympathetic neurons were maintained and deprived of NGF as previously described (Bamji et al., 1998; Ma et al., 1992). PC12^rtTA cells were maintained and infected as previously described (Majdan et al., 1997; Salehi et al., 2002); for NRAGE, […] doxycycline was added to all plates at time of infection. Wildtype and HSF1 nullizygous immortalized mouse embryonic fibroblasts (MEFs) were maintained in DMEM containing 10% fetal calf serum, 1 μM β-mercaptoethanol, 1% non-essential amino acids, 1% L-glutamine, 1% antimycotic solution and 1% sodium pyruvate (all from GibcoBRL). Sympathetic neuron survival was assessed using the MTS assay according to the manufacturer's instructions (Promega). Analysis of PC12 cell death was determined using a lactate dehydrogenase (LDH) assay (Roche) as per the manufacturer's instructions. Transfections using plasmids or RNAi were performed using Lipofectamine 2000. Immunoblotting was performed as previously described (Majdan et al., 1997; Salehi et al., 2002).

HSP70 = assay: HSP protein expression in PC12 / PC12rtTA cells (immunoblot); assay type: cell-based; details: PC12rtTA cells infected with AdNRG, Adp75 or AdLacZ, 30 hours (FIG. 6A)
Experimental: FIGS. 4A-4C are photographs of Western blots which illustrate that compound 1 treatment of PC12 cells induces expression of HSP70. A: PC12 cells were infected with 5 MOI of AdNRG (NRG) or AdLacZ (LacZ) as indicated. Cells were left untreated (0) or treated with 40 μM compound 1 at time of infection (30), one hour before lysis (1), or at both times (30+1). Cells were lysed thirty hours after infection, normalized for protein content, and analyzed for levels of phospho-Ser^63 c-Jun and total c-Jun, total JNK, IkBα, and NRAGE by immunoblotting. Lysates from untreated cells are indicated by ‘−’. B: PC12 cells were treated with the indicated concentrations of compound 1 for 18 hours and then lysed, normalized for protein content, and analyzed for levels of HSP70 by immunoblotting. Lysates from untreated cells are indicated by ‘−’. C: RNA isolated from PC12^rtTA cells treated with increasing concentrations of compound 1 for 18 hours was analyzed by rtPCR using primers specific to HSP70, HSP25, HSP90 or actin, as indicated. Experiments in Panel A and B were performed three times and that in Panel C was performed twice, with essentially identical results. D: PC12^rtTA cells were infected with AdNRG at 5 MOI, Adp75 at 50 MOI, or the control virus AdLacZ at 50 MOI. At time of infection, the cells were treated with increasing concentrations of compound 1, or with vehicle alone, as indicated. Thirty hours after infection, cells were lysed, normalized for protein content, and analyzed for levels of c-Jun phosphorylation, HSP70, HSP25, HSP40, NRAGE, p75NTR, JNK-1 and IkBα, as indicated.
FIGS. 6A, 6B and 6C are graphs and photographs of Western blots which illustrate that compound 1 analogues inhibit JNK activation and induce expression of HSP70. A: PC12^rtTA cells were infected with 5 MOI of AdNRG, 50 MOI of Adp75 or 50 MOI of the control virus AdLacZ. At time of infection, the cells were treated with an increasing concentrations of compound 1, or its analogues, compound 2, compound 3, compound 4, or with vehicle alone, as indicated. Thirty hours after infection, cells were lysed, normalized for protein levels, and analyzed for levels of HSP70, HSP25 and JNK-1, as indicated. B: PC12^rtTA cells were treated as above and after 40 hours infection were assayed for death using the lactate dehydrogenase (LDH) assay. Results are normalized relative to those obtained with 1% Triton, and represent the mean±standard deviation of a representative experiment performed in triplicate (*=P<0.025 relative to ‘0’ for each compound concentration). C: PC12^rtTA cells were infected with 50 MOI of LacZ or 5 MOI of AdNRG50 and at the time of infection, were treated with 40 μM compound 1, or its analogues, compound 2, compound 3, compound 4, or with vehicle alone, as indicated. Thirty hours after infection, cells were lysed, normalized for protein levels, and were analyzed for phosphorylated c-Jun, total c-Jun, NRAGE and JNK-1, as indicated. Experiments in Panel A and C were performed twice and that in B were performed twice, with essentially identical results.
To address this, SCG neurons were treated with compound 1 for 18 hours then lysed and assessed for HSP70 levels by immunoblot. Uninfected PC12rtTA cells were treated in a similar manner. […] To test if the accumulation of HSP70 induced by compound 1 reflected increased steady state levels of its mRNA, RNA was isolated from PC12 cells treated with increasing concentrations of compound 1 for 18 hours and the cell lysates subjected to semi-quantitative rtPCR. […] HSP protein levels were also assessed in PC12rtTA cells infected with AdLacZ, Adp75, or AdNRG, and at the same time, exposed to compound 1.

PC12^rtTA cells = assay: p75NTR- or NRAGE-induced cell death of PC12rtTA cells (LDH release assay); assay type: cell-based; details: increasing concentrations, 40 hours, LDH
Experimental: FIGS. 2A and 2B are graphs showing that compound 1 inhibits p75NTR or NRAGE induced JNK activation and cell death. Compound 1 inhibits NRAGE (A) or p75NTR (B) mediated cell death. PC12^rtTA cells were infected with recombinant adenoviruses expressing full-length NRAGE (AdNRG) at 5 MOI, full length p75NTR (Adp75) at 50 or 100 MOI, or the control protein β-galactosidase (AdLacZ) (at 5 MOI in (A) and 50 MOI in (B)). At time of infection, the cells were treated with an increasing concentration of compound 1, or with vehicle alone, as indicated. After 40 hours, cells were assayed for death using the lactate dehydrogenase (LDH) assay; untreated cells (Un) and cells treated with 1% Triton X-100 (Tx) were used to delineate the output range of the assay. Results are normalized relative to those obtained with 1% Triton (Tx), and represent the mean±standard deviation of a representative experiment performed in triplicate (*=P<0.005 relative to no compound 1).
PC12^rtTA were infected with adenoviruses encoding p75NTR (Adp75), NRAGE (AdNRG), or as a control, LacZ (AdLacZ), and were concurrently exposed to increasing concentrations of compound 1 for a period of 40 hours. Cell death was assessed using an LDH release assay. […] Treatment with 40 μM compound 1 reduced p75NTR- or NRAGE-induced cell death by greater than 90%.
as §2

HSP90 [2] = assay: ATP-Sepharose interaction assay; assay type: binding; details: purified HSP90 pre-incubated with substance
Experimental: Bound HSP90 was eluted HSP90 content was determined by immunoblotting.
ATP-Sepharose Interaction Assays. These were performed essentially as described in (Grenert et al., 1997). […] 25 ul of ATP-sepharose beads were added and the reactions were incubated for 30 min at 30° C. After thorough washing with ice-cold incubation buffer, bound proteins were eluted in sample buffer and HSP90 content was determined by immunoblotting.

HSP90 [3] = assay: Photoaffinity-biotin labelling of PC12 protein extracts; assay type: binding; details: 2 uM, 3 hours, UV 30 minutes, approximately 90 kDal band
Experimental: HSP90 was also identified using the photoaffinity-biotinylated probe, compound 7. PC12 protein extracts were separated by SDS page. SDS was removed by incubation in 20% isopropanol and proteins were renatured by incubation in DTT and guanidine HCl. The gel was then incubated for 3 hours with 2 uM compound 7 and then photoactivated for 30 minutes using a UV crosslinker. Proteins were then transferred to nitrocellulose and biotin was detected with HRP-conjugated strepavidin.

## CC(C)(C)c1ccc(-c2cn3nc(S(N)(=O)=O)sc3n2)cc1 [Compound 15]
HSP90 protein
  binding to HSP90 protein by STD 1H NMR: directly bind

## CC(=O)N1CCN(CC[S+]([O-])c2nn3cc(-c4ccccc4)nc3s2)CC1 (centres unmarked) [Compound 20]
HSP90 protein
  binding to HSP90 protein by STD 1H NMR: Positive; also recorded: directly bind

## [NH-]S(=O)(=O)c1nn2[14cH]c(-c3ccc(-c4cccc(C(F)(F)F)c4)cc3)nc2s1.[Na+] [[^14C]—Na-19, [5-^14C]-6-(3′-(trifluoromethyl)biphenyl-4-yl)imidazo[2,1-b]-1,3,4-thiadiazole-2-sulfonamide Mono Sodium Salt]
[1]
  radioactivity in sciatic nerve: significant, time dependent, radioactivity in sciatic nerve

## NS(=O)(=O)c1nn2cc(-c3ccc(OCC(=O)O)cc3)nc2s1 [Compound 3]
SCG neurons
  protection from NGF-withdrawal induced cell death: do not protect
HSP70
  HSP70 production: failed to induce HSP70
PC12^rtTA cells
  protection from Adp75- or AdNRG-induced cell death: do not protect

## COCCOCCOc1ccc(-c2cn3nc(S(N)(=O)=O)sc3n2)cc1 [Compound 13]
HSP90 protein
  binding to HSP90 protein by STD 1H NMR: directly bind

## NS(=O)(=O)c1nn2cc(-c3ccc(O)cc3)nc2s1 [Compound 5]
HSP90 protein
  binding to HSP90 protein by STD 1H NMR: directly bind

## NS(=O)(=O)c1nn2cc(-c3ccc(NC(=O)c4ccccc4)cc3)nc2s1 [Compound 4]
SCG neurons
  protection from NGF-withdrawal induced cell death: do not protect
HSP70
  HSP70 production: failed to induce HSP70
PC12^rtTA cells
  protection from Adp75- or AdNRG-induced cell death: do not protect

## Nc1ncnc2c1ncn2[C@@H]1O[C@H](COP(=O)(O)OP(=O)(O)OP(=O)(O)O)[C@@H](O)[C@H]1O [ATP, reference compound]
HSP90 [2]
  binding of HSP90 to gATP-Sepharose: strongly inhibited

## [N-]=[N+]=Nc1c(F)c(F)c(-c2cn3nc(S(=O)(=O)CCNC(=O)CCCCC4SC[C@H]5NC(=O)N[C@@H]45)sc3n2)c(F)c1F (some centres unmarked) [Compound 7]
HSP90 [3]
  photoaffinity labelled band: consistent with binding to HSP90

## NS(=O)(=O)c1nn2cc(-c3ccc4c(c3)OCCCO4)nc2s1 [Compound 12]
HSP90 protein
  binding to HSP90 protein by STD 1H NMR: directly bind

Source: US20090179638A1, “ASSAY FOR IDENTIFYING INHIBITORS OF NEURONAL APOPTOTIC PATHWAYS” (AEGERA THERAPEUTICS INC., priority 2006, published 2009)
